Laboratory results as given in patent US20240189380A1, “COMPOSITIONS FOR INHIBITING EHP INFECTION IN SHRIMP AND RELATED METHODS” (priority 2022, published 2024).

System: EHP spores
Experiment: In vitro inactivation of polar tube extrusion of EHP spores
Type: cell-based, Enterocytozoon hepatopenaei
Conditions: for polar tube extrusion of EHP spores compared to DMSO control: p>0.05; for polar tube extrusion rate: Batch 1 spores (high saline culture), 2 hours at 37° C.; for % of extrusion post-incubation: Batch 2 spores (low saline culture)
Protocol: The mechanism of EHP infection involves extrusion of polar tube (adhesive mechanism). In an in vitro study, inactivation of polar tube extrusion of EHP spores were tested with selected active ingredients namely thymoquinone, cinnamic aldehyde, eugenol, and carvacrol. The stock solution of bioactive molecules was prepared in dimethyl sulfoxide (DMSO) and further working solution prepared with 1× sterile phosphate buffer saline (1×PBS).
EHP spores were isolated and purified from HP of infected shrimps from high saline shrimp culture system (Batch 1) and low saline shrimp culture system (Batch 2). Purified spores were then incubated with the test molecules at a desired concentration for 2 hours at 37° C. Washed spores were then induced for polar tube extrusion with alkaline agent. The extrusion of the spore polar tubes was determined under a light microscope at 100× magnification by counting the number of extruded spores from a total of 100 spores and converting the number into % of extrusion.
Statistical analysis. The One-way analysis of variance (ANOVA) and t-Test were performed to determine the significant differences at a 95% confidence interval of % polar tube extrusion between spores treated with bioactive molecules and the corresponding DMSO control. The analyses were carried out using STATGRAPHICS centurion.

Structure (SMILES) | polar tube extrusion of EHP spores compared to DMSO control (100 ppm) | polar tube extrusion rate (10 ppm) [%] | polar tube extrusion rate (100 ppm) [%] | % of extrusion post-incubation (10 ppm, 2% DMSO control 86.47%) [%] | % of extrusion post-incubation (100 ppm, 20% DMSO control 88.32%) [%]
Cc1ccc(C(C)C)cc1O [Carvacrol] | slight reduction |  |  |  | 
O=C/C=C/c1ccccc1 [Cinnamic aldehyde] | slight reduction |  |  |  | 
C=CCc1ccc(O)c(OC)c1 [Eugenol] | slight reduction |  |  |  | 
CC1=CC(=O)C(C(C)C)=CC1=O [Thymoquinone] |  | 43.92 | 6.34 | 40.31 | 0.31
